In US6410735B1, “1-(4-arylpiperazin-1-y1)-ω-[N-(α,ω-dicarboximido)]-alkanes useful as uro-selective α1-adrenoceptor blockers” (Ranbaxy Laboratories Limited, priority 1997, dated 2002):

Tests used:
Format in all cases: cell-based
β1-adrenoceptor = molecular target: T1, β1-adrenoceptor (Rattus norvegicus, UniProt P18090); assay: Receptor selectivity, electrically stimulated rat ventricular strips; details: read-out: pKB B-adrenergic (converted)
T1 construct: from tissue; host or cells: rat ventricular strips
Experimental: (§1) Selectivity of action of the present compounds was tested against a range of different receptors, e.g., β1- and α2-adrenergic, muscarinic cholinergic, serotoninergic (5-HT2A), histaminergic (H1), angiotensin II, endothelin (ETA and B,), as well as calcium and potassium channels. Rat aorta was used to study the effect of the compounds on 5-HT2A, ETA, calcium and potassium channels. Angiotensin II receptor antagonistic activity was studied in rabbit aorta. Muscarinic cholinergic receptor and ETB receptor antagonistic activity was studied in rat trachea, while guinea pig trachea was used to study H1 receptor antagonistic activity. Electrically stimulated rat vas deferens was used to investigate the effect of α2-adrenoceptors, while β1-adrenoceptor antagonistic activity was studied using electrically stimulated rat ventricular strips. Results of this selectivity study is shown in (Table 2).

ETA = molecular target: T2, ETA (Rattus norvegicus, UniProt P26684); assay: Receptor selectivity, rat aorta; details: read-out: pKB ETA (converted)
T2 construct: from tissue; host or cells: rat aorta
T2 sequence (P26684 21-426): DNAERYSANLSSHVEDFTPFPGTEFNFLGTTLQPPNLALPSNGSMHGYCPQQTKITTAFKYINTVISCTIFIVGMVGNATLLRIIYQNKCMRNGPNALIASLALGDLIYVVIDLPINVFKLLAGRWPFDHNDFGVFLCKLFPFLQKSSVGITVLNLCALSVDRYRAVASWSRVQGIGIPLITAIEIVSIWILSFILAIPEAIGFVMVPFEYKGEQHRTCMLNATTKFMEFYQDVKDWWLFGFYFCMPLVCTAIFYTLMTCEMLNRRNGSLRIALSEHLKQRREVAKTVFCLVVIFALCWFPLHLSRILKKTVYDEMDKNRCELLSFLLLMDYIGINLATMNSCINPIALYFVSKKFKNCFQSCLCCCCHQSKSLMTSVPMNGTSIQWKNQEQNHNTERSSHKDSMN
Experimental: as §1

ETB receptor = molecular target: T3, ETB receptor (Rattus norvegicus, UniProt P21451); assay: Receptor selectivity, rat trachea; details: read-out: pKB ETB (converted)
T3 construct: from tissue; host or cells: rat trachea
T3 sequence (P21451 27-442): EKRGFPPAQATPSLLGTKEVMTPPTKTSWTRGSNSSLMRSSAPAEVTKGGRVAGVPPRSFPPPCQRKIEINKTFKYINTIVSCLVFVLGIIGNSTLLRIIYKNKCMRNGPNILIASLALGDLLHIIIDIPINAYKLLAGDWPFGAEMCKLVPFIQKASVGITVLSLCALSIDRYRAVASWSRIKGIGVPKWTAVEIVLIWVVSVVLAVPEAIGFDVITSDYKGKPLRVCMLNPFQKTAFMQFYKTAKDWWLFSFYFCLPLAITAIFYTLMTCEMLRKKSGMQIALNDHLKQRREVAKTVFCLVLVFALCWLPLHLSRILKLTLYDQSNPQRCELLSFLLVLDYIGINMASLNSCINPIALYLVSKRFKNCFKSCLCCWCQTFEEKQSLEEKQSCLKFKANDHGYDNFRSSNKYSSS
Experimental: as §1

Angiotensin II receptor = molecular target: T4, Angiotensin II receptor (Oryctolagus cuniculus, UniProt P34976); assay: Receptor selectivity, rabbit aorta; details: read-out: pKB Angiotensin II (converted)
T4 construct: from tissue; host or cells: rabbit aorta
T4 sequence (P34976 1-359): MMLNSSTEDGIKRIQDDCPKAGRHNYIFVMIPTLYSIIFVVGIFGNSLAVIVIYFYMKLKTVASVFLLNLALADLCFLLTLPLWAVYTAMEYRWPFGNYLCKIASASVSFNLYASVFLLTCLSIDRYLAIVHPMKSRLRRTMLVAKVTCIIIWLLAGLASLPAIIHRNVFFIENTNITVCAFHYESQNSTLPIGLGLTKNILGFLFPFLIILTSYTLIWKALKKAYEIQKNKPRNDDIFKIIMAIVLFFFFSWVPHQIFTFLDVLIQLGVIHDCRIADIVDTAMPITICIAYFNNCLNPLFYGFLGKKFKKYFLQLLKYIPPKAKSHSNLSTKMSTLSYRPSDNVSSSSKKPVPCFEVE
Experimental: as §1

T1 sequence (P18090 whole entry): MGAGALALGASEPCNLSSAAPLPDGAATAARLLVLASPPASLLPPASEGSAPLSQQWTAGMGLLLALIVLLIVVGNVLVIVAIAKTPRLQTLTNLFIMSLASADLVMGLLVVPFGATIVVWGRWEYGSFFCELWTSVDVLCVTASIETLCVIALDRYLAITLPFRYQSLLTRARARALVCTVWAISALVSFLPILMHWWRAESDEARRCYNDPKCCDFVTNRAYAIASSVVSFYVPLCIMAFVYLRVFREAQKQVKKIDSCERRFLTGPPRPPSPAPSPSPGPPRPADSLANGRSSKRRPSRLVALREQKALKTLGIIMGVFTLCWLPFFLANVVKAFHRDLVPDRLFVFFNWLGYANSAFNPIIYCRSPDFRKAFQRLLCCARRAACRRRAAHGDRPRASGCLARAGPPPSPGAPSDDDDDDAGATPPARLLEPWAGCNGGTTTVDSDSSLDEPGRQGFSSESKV

Compound	Kb (β1-adrenoceptor)	Kb (ETA)	Kb (ETB receptor)	Kb (Angiotensin II receptor)
COc1ccccc1N1CCN(CCCN2C(=O)CCC2=O)CC1 [Compound 2, 1-[4-(2-Methoxyphenyl)piperazin-1-yl]3-(2,5-dioxopyrrolidin-1-yl)propane]	63.1 µM	–	–	–
COc1ccccc1N1CCN(CCCN2C(=O)CCCC2=O)CC1 [Compound 13, 1-[4-(2-Methoxyphenyl)piperazin-1-yl]-3-(2,6-dioxopiperidin-1-yl)propane]	7.94 µM	50.1 µM	12.6 µM	5.01 µM
COc1ccccc1N1CCN(CCCCN2C(=O)CCC2=O)CC1 [Compound 9, 1-[4-(2-Methoxyphenyl)piperazin-1-yl]-4-(2,5-dioxopyrrolidin-1-yl)butane]	–	50.1 µM	3.98 µM	2.51 µM
